Our source for the Ki values is patent publication US7598255B2 (Janssen Pharmaceutica NV, priority 2005, dated 2009).

Counter-ions that a name gives are not always drawn. Bounds are passed on as bounds.

Assay [1] has as its target rat 5-HT7a receptor (Rattus norvegicus, UniProt P32305). The experiment in a line: Affinity for 5-HT7 receptor binding sites, radioligand binding with [3H]5-CT. To be noted: membranes of HEK-293 cells with rat 5-HT7a, 1 nM [3H]5-CT. How it is done: The affinity of the compounds described in this invention for the 5-HT7 receptor binding site was evaluated by single competition radioligand binding assay. The assay was performed on membranes prepared from HEK-293 cells that had been subjected to stable transfection with the rat 5-HT7a receptor (GB: NM022938). Cells were scraped from the culture plates, suspended in Tris-HCl 50 mM pH 7.5 and collected through centrifugation (1000 rpm for 5 min). The cell pellets were homogenized (Polytron, 15 s, setting 5) in 50 mM Tris-HCl (pH 7.5), 5 mM EDTA. Following centrifugation (15,000 rpm for 25 min), membranes (135 μg protein/mL) were resuspended in the same buffer and incubated for 60 min at RT with 1 nM [^3H]5-CT in the presence of increasing concentration of test compounds. Nonspecific binding was defined in the presence of 10 μM 5-HT. Incubation was stopped by rapid filtration using the cell harvester (Packard). Radioactivity was counted in a TopCount-NXT (Packard). Experiments were conducted in triplicate.

Assay [2] has as its target 5-HT2B receptor (Homo sapiens, UniProt P41595). The assay can be described thus: Affinity for 5HT2 receptor binding sites, h5-HT2B, [3H]mesulergine. The settings on record: CHO h5-HT2B membranes.
The target of assay [3] is T1, human recombinant 5-HT2C receptor (Homo sapiens, UniProt P28335).
T1 sequence (P28335 33-458): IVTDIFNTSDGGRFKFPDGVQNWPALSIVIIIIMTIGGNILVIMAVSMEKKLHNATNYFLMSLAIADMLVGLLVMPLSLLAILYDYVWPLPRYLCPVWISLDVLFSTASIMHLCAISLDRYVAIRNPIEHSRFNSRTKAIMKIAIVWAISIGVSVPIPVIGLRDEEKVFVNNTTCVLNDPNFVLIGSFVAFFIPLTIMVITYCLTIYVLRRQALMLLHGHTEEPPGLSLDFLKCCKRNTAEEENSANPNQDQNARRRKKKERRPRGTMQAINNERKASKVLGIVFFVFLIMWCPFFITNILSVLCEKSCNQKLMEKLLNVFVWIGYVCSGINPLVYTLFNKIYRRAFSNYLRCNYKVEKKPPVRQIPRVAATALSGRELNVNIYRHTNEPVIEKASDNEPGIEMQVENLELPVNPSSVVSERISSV
The experiment in a line: Affinity for 5HT2 receptor binding sites, h5-HT2C, [3H]mesulergine. The settings on record: CHO h5-HT2C membranes.
Protocol: (§1) Sigmoidal inhibition curves were generated and fitted by nonlinear regression analysis (GraphPad Prism).
Receptor binding was performed using the human recombinant 5-HT2A (GB: X57830), 5-HT2B (GB: Z36748) and 5-HT2C (GB: M81778) receptors. The affinity of the compounds for the 3 different human 5-HT2 receptor subtypes was evaluated by competitive radioligand binding assays using [^3H]ketanserin (h5-HT2A) or [^3H]mesulergine (h5-HT2B and h5-HT2C). The assays were performed on membranes prepared from NIH3T3 stably transfected with h5-HT2A or CHO stably transfected with h5-HT2B and h5-HT2C.

Assay [4] has as its target 5-HT2A receptor (Homo sapiens, UniProt P28223). The experiment in a line: Affinity for 5-HT2A receptor binding sites, radioligand binding with [3H]ketanserin. The settings on record: read-out: Ki 5-HT2A, rat cortex membranes (assay 2) or NIH3T3 h5-HT2A membranes (assay 3), table does not say which.
Protocol: as §1
The affinity of the compounds for the rat 5-HT2A receptor was evaluated by competitive radioligand binding assay using [^3H]ketanserine as the radioligand. […] Brain tissue (rat cortex) was homogenized in 20 volumes per wet weight tissue of Tris-HCl buffer (50 mM, pH 7.4). The total membrane fraction was collected by centrifugation and washed by subsequent centrifugation runs (25 min at 25,000 g at 4° C.). Membranes were re-suspended in Tris-HCl buffer (50 mM, pH 7.4) containing 1 nM [^3H]ketanserin. Non-specific binding was estimated in the presence of 10 μM risperidone. The incubation was terminated by rapid filtration over Whatman GF/B filters pre-soaked in 0.1% polyethylenimine, and one washing step with 1 mL ice-cold Tris-HCl buffer, pH 7.4.

Sequence of 5-HT2B receptor (P41595 whole entry): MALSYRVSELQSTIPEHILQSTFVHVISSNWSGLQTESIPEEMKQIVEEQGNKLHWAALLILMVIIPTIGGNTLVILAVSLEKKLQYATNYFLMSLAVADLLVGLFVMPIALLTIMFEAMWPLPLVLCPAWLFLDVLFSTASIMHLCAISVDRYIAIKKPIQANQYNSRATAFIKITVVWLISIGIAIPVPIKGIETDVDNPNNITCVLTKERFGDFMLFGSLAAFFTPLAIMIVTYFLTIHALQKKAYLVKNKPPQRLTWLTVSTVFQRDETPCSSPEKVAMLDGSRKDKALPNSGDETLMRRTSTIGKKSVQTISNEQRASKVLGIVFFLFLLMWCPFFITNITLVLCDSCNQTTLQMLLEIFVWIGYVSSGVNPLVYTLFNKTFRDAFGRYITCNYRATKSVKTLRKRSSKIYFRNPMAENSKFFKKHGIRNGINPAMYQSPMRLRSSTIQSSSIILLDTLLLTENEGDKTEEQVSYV
Sequence of rat 5-HT7a receptor (P32305 whole entry): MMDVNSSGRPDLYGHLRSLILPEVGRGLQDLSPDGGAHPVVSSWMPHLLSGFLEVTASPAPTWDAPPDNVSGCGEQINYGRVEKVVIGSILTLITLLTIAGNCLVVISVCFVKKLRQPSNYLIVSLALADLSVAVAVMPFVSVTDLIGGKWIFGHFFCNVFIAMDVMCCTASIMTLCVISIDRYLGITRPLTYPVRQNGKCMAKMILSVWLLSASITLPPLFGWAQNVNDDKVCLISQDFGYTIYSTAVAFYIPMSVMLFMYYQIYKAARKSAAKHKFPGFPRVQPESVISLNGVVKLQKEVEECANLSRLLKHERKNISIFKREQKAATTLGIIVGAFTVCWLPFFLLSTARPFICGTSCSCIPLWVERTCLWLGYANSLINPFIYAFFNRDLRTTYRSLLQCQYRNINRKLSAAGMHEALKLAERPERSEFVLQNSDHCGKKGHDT

Regarding `CC(C)c1nc(-c2ccc(C(F)(F)F)cc2)c2c(n1)C(C)CN(Cc1ccccc1)C2` (stereo not drawn) [Example 96, 6-Benzyl-2-isopropyl-8-methyl-4-(4-trifluoromethyl-phenyl)-5,6,7,8-tetrahydro-pyrido[4,3-d]pyrimidine], the inhibitory constant (Ki) in assay [1], in assay [2], in assay [3] and in assay [4] was over 10000 nM each time.
On to `N#Cc1ccc(-c2nc(Cc3ccc(F)cc3)nc3c2CNCC3)cc1` [Example 16, 4-[2-(4-Fluoro-benzyl)-5,6,7,8-tetrahydro-pyrido[4,3-d]pyrimidin-4-yl]-benzonitrile], for which the Ki is over 10000 nM in assay [1], over 10000 nM in assay [2], over 10000 nM in assay [3] and 2000 nM in assay [4].
For the compound `CC(C)c1nc2c(c(-c3ccccc3)n1)CCN(C)C2` [Example 85, 2-Isopropyl-7-methyl-4-phenyl-5,6,7,8-tetrahydro-pyrido[3,4-d]pyrimidine], the Ki was over 10000 nM in assay [1], 1150 nM in assay [2], over 10000 nM in assay [3] and 82 nM in assay [4].
Consider `CC(C)c1nc2c(c(-c3ccccc3)n1)CCNC2` [Example 81, 2-Isopropyl-4-phenyl-5,6,7,8-tetrahydro-pyrido[3,4-d]pyrimidine], for which the inhibition constant (Ki) in assay [1] was over 10000 nM; in assay [2], 450 nM; in assay [3] it was 6000 nM; in assay [4], 25 nM.
For `CC(C)c1nc2c(c(-c3ccccc3)n1)CCN(Cc1ccccc1)C2` [Example 75, 7-Benzyl-2-isopropyl-4-phenyl-5,6,7,8-tetrahydro-pyrido[3,4-d]pyrimidine], in that order: 5000 nM, 3000 nM, over 10000 nM and 70 nM.
`Fc1ccc(-c2nc(-c3ccccc3)nc3c2CNCC3)cc1` [Example 117, 4-(4-Fluoro-phenyl)-2-phenyl-5,6,7,8-tetrahydro-pyrido[4,3-d]pyrimidine]: the inhibitory constant (Ki) is over 10000 nM in assay [1], 1000 nM in assay [2], 4000 nM in assay [3] and 50 nM in assay [4].
For `COc1ccc(-c2nc(C(C)C)nc3c2CNCC3)cc1` [Example 30, 2-Isopropyl-4-(4-methoxy-phenyl)-5,6,7,8-tetrahydro-pyrido[4,3-d]pyrimidine], in that order: over 10000 nM, 1000 nM, 2500 nM and 800 nM.
For `Cc1nc2c(c(-c3ccccc3)n1)CCNCC2` [Example 52, 2-Methyl-4-phenyl-6,7,8,9-tetrahydro-5H-pyrimido[4,5-d]azepine], the Ki in assay [1] was over 10000 nM; in assay [2] it was 1150 nM; in assay [3], 9000 nM; in assay [4], 725 nM.
The corresponding values for `Cc1ccc(-c2nc(Cc3ccc(F)cc3)ncc2CN(C)C)cc1` [Example 116, [2-(4-Fluoro-benzyl)-4-p-tolyl-pyrimidin-5-ylmethyl]-dimethyl-amine] are over 10000 nM, over 10000 nM, over 10000 nM and 2000 nM.
Turning to `CN1CCc2nc(Cc3ccc(F)cc3)nc(-c3ccc(F)cc3)c2C1` [Example 14, 2-(4-Fluoro-benzyl)-4-(4-fluoro-phenyl)-6-methyl-5,6,7,8-tetrahydro-pyrido[4,3-d]pyrimidine], the Ki is over 10000 nM in assay [1], 4000 nM in assay [2], 4000 nM in assay [3] and 30 nM in assay [4].
As for `CC(C)c1nc(-c2ccc(F)c(Cl)c2)c2c(n1)C(C)CN(Cc1ccccc1)C2` (stereo not drawn) [Example 93, 6-Benzyl-4-(3-chloro-4-fluoro-phenyl)-2-isopropyl-8-methyl-5,6,7,8-tetrahydro-pyrido[4,3-d]pyrimidine], the Ki in assay [1], in assay [2], in assay [3] and in assay [4] was over 10000 nM throughout.
Consider `CNC1CCc2c(nc(C(C)C)nc2-c2ccc(F)cc2)C1` (stereo not drawn) [Example 108, [4-(4-Fluoro-phenyl)-2-isopropyl-5,6,7,8-tetrahydro-quinazolin-7-yl]-methyl-amine hydrochloride], for which the Ki is over 10000 nM in assay [1], 42 nM in assay [2], 1000 nM in assay [3] and 18 nM in assay [4].
For `COc1ccc(-c2nc(CC(C)C)nc3c2CNCC3)cc1` [Example 41, 2-Isobutyl-4-(4-methoxy-phenyl)-5,6,7,8-tetrahydro-pyrido[4,3-d]pyrimidine], in that order: over 10000 nM, 5000 nM, 5000 nM and 2000 nM.
The corresponding values for `CC(C)c1nc2c(c(-c3ccsc3)n1)CCN(C)C2` [Example 91, 2-Isopropyl-7-methyl-4-thiophen-3-yl-5,6,7,8-tetrahydro-pyrido[3,4-d]pyrimidine hydrochloride] are over 10000 nM, 200 nM, 9000 nM and 75 nM.
The corresponding values for `COc1ccc(-c2nc(Cc3ccccc3)nc3c2CCN(Cc2ccccc2)C3)cc1` [Example 73, 2,7-Dibenzyl-4-(4-methoxy-phenyl)-5,6,7,8-tetrahydro-pyrido[3,4-d]pyrimidine] are over 10000 nM, over 10000 nM, over 10000 nM and 140 nM.
For the compound `CC(C)c1nc2c(c(-c3ccc(C(F)(F)F)cc3)n1)CNCC2` [Example 32, 2-Isopropyl-4-(4-trifluoromethyl-phenyl)-5,6,7,8-tetrahydro-pyrido[4,3-d]pyrimidine], the Ki in assay [1] is over 10000 nM; in assay [2], over 10000 nM; in assay [3], over 10000 nM; in assay [4], 2000 nM.
`COc1ccc(-c2nc(C(C)C)nc3c2CCCNC3)cc1` [Example 67, 2-Isopropyl-4-(4-methoxy-phenyl)-6,7,8,9-tetrahydro-5H-pyrimido[4,5-c]azepine]: the Ki in assay [1] was found to be 5400 nM; in assay [2], 80 nM; in assay [3], 495 nM; in assay [4] it was 56 nM.
Turning to `Fc1ccc(-c2nc(C3CCC3)nc3c2CNCC3)cc1` [Example 5, 2-Cyclobutyl-4-(4-fluoro-phenyl)-5,6,7,8-tetrahydro-pyrido[4,3-d]pyrimidine hydrochloride], the Ki in assay [1] was over 10000 nM; in assay [2] it was 350 nM; in assay [3] it was 250 nM; in assay [4], 13 nM.
In the case of `CC(C)c1nc(-c2ccsc2)c2c(n1)C(C)CNC2` (stereo not drawn) [Example 105, 2-Isopropyl-8-methyl-4-thiophen-3-yl-5,6,7,8-tetrahydro-pyrido[4,3-d]pyrimidine], the Ki in assay [1] was over 10000 nM; in assay [2], 100 nM; in assay [3], 400 nM; in assay [4], 40 nM.
`Cc1cc(-c2nc(C(C)C)nc3c2CCN(Cc2ccccc2)C3)cs1` [Example 86, 7-Benzyl-2-isopropyl-4-(5-methyl-thiophen-3-yl)-5,6,7,8-tetrahydro-pyrido[3,4-d]pyrimidine hydrochloride]: the Ki was 9000 nM in assay [1], 4100 nM in assay [2], over 10000 nM in assay [3] and 100 nM in assay [4].
The corresponding values for `CC(C)c1nc(-c2ccccc2)c2c(n1)C(C)CNC2` (stereo not drawn) [Example 103, 2-Isopropyl-8-methyl-4-phenyl-5,6,7,8-tetrahydro-pyrido[4,3-d]pyrimidine] are over 10000 nM, 1000 nM, 1000 nM and 40 nM.
For `CC(C)c1nc(-c2ccc(-c3ccc(Cl)cc3)cc2)c2c(n1)C(C)CN(Cc1ccccc1)C2` (stereo not drawn) [Example 99, 6-Benzyl-4-(4′-chloro-biphenyl-4-yl)-2-isopropyl-8-methyl-5,6,7,8-tetrahydro-pyrido[4,3-d]pyrimidine], in that order: over 10000 nM, over 10000 nM, over 10000 nM and over 10000 nM.
The corresponding values for `CC(C)c1nc2c(c(-c3ccc(F)cc3)n1)CCC(O)C2` (stereo not drawn) [Example 110, 4-(4-Fluoro-phenyl)-2-isopropyl-5,6,7,8-tetrahydro-quinazolin-7-ol] are over 10000 nM, 1200 nM, 4000 nM and 220 nM.
Take `CC(C)c1nc2c(c(-c3ccccc3)n1)CNCC2` [Example 31, 2-Isopropyl-4-phenyl-5,6,7,8-tetrahydro-pyrido[4,3-d]pyrimidine]: the Ki in assay [1] was over 10000 nM; in assay [2], 2000 nM; in assay [3], over 10000 nM; in assay [4], 70 nM.

As a reminder, the Ki is the equilibrium dissociation constant of an inhibitor or competing ligand from its target.
